Among the data in BindingDB's records for patent US20240190875 (Changchun Genescience Pharmaceutical Co., 2024) are EC50 values, retold here.

The target of the assay is Growth hormone secretagogue receptor type 1 (Homo sapiens, UniProt Q92847). Briefly: Determination of Human GHSR Agonist Activity. The source says: This method was used to determine the agonism effect of the compound of the invention on the activity of human GHSR protein expressed in human GHSR/CHO stable cell line.
Growth hormone secretagogue receptor type 1, sequence (Q92847 whole entry): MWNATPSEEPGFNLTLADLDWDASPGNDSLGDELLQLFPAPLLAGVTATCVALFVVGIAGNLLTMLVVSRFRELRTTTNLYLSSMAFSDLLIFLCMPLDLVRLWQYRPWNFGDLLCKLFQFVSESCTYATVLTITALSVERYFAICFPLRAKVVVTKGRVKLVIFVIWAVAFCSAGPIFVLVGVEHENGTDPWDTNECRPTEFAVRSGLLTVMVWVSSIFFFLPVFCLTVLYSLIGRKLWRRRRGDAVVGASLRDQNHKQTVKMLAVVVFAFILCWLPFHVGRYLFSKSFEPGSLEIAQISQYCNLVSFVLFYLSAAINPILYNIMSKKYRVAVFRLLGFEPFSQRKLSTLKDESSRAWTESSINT
In the case of `C[n+]1cccc(C(=O)NC(C)(C)C(=O)N[C@H](COCc2ccccc2)C(=O)N2CCC3(CC2)CN(S(C)(=O)=O)c2ccccc23)c1` [US20240190875, Example 18], the EC50 came to 15.1 nM.

In turn, `CC(=O)/C=C(/C)NC(C)(C)C(=O)N[C@H](COCc1ccccc1)C(=O)N1CCC2(CC1)CN(S(C)(=O)=O)c1ccccc12` [US20240190875, Example 19] registered a concentration giving a half-maximal response (EC50) of 24.3 nM.

Take `CC(C)(NC(=O)[C@@H](N)CCC(N)=O)C(=O)N[C@H](COCc1ccccc1)C(=O)N1CCC2(CC1)CN(S(C)(=O)=O)c1ccccc12` [US20240190875, Example 1]: the concentration giving a half-maximal response (EC50) came out at 15.6 nM. `CC(C)(NC(=O)CN)C(=O)N[C@H](COCc1ccccc1)C(=O)N1CCC2(CC1)CN(S(C)(=O)=O)c1ccccc12` [US20240190875, Example 16] showed a concentration giving a half-maximal response (EC50) of 9.8 nM. Against the preceding compound, the EC50 is about 1.6-fold lower.

`CC(C)(C)C(=O)OCOC(=O)NC(C)(C)C(=O)N[C@H](COCc1ccccc1)C(=O)N1CCC2(CC1)CN(S(C)(=O)=O)c1ccccc12` [US20240190875, Example 21] yielded a concentration giving a half-maximal response (EC50) of 18.3 nM. Against the preceding compound, the EC50 is about 1.9-fold higher.

On to `CC(=O)OCOC(=O)NC(C)(C)C(=O)N[C@H](COCc1ccccc1)C(=O)N1CCC2(CC1)CN(S(C)(=O)=O)c1ccccc12` [US20240190875, Example 22], for which the 50% effective concentration (EC50) worked out at 9.3 nM. The result for `CC(C)C(=O)OCOC(=O)NC(C)(C)C(=O)N[C@H](COCc1ccccc1)C(=O)N1CCC2(CC1)CN(S(C)(=O)=O)c1ccccc12` [US20240190875, Example 15] reads 4.3 nM; that for `Cc1oc(=O)oc1COC(=O)NC(C)(C)C(=O)N[C@H](COCc1ccccc1)C(=O)N1CCC2(CC1)CN(S(C)(=O)=O)c1ccccc12` [US20240190875, Example 17], 24.5 nM.

One may read the EC50 as the concentration needed to bring the measured effect to its halfway point. A higher EC50 goes with weaker potency.
